Molecular target: T1, MtbRho (transcription termination factor Rho) (Mycobacterium tuberculosis, UniProt P9WHF3)
T1 construct: WT MtbRho, N-terminal His tag, hexamer
Test: biochemical

T1 sequence (P9WHF3 whole entry): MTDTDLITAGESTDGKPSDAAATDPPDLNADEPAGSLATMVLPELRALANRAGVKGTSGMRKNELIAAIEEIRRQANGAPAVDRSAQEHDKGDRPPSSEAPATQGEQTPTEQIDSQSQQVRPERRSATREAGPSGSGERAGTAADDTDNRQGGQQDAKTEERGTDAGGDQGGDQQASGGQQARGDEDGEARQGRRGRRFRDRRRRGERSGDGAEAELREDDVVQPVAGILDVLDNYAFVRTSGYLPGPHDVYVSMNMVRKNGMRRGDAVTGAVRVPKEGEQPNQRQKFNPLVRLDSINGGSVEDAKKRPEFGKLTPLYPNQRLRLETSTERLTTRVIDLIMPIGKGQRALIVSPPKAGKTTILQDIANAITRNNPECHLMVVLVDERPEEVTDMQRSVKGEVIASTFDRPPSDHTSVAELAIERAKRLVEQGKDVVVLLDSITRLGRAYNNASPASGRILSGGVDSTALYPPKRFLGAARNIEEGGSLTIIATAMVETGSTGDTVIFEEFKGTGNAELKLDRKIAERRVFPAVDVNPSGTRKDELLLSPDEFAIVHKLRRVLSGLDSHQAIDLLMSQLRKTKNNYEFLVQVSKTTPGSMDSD

C=C1CCO[C@]2([C@@H](O)[C@@](C)(O)CO)NC(=O)[C@@]1(O)NC2=O [BCM, bicyclomycin]
IC50: 157 ± 20 µM

Reference: paper PMC4499133, “ATP-dependent motor activity of the transcription termination factor Rho from Mycobacterium tuberculosis” (Nucleic Acids Research, 2015)
